In patent US20260356826A1, “SALTS OF AMINO QUINAZOLINE DERIVATIVES” (CHIESI FARMACEUTICI S.P.A., priority 2023, published 2026):
≈ marks a conversion by molar mass, not a printed value. Entries after “also recorded” stand apart in the source; their conditions may differ. Counter-ions that a name gives are not always drawn. Like-named read-outs stand apart in the source and are kept apart here.

Experiments:
Type in all cases: physicochemical
[1] = Dissolution in Fasted State Simulated Gastric Fluid (FaSSGF), manual experiment, 37 °C; details: for Solubility: 37 °C
Method: The dissolution in Fasted State Simulated Gastric Fluid (FaSSGF) of mesylate salt Form 2 of the compound A of Example 2 and esylate salt Form 1 of Example 6 in comparison with the free base Form A and with other salts was tested by means of manual experiment. The medium for simulated oral fluids was FaSSGF obtained from Biorelevant.com Ltd. The experiments were conducted for 60 minutes at 37 °C.
General preparation of salts: in a round-bottomed flask, 200 mg of compound A free base Form A according to Example 1 (0.52 mmol) were suspended in 5 ml of solvent and stirred at RT. Acetone was employed for bromide, ethanedisulfonate, malonate, sulfate, saccharinate, tosylate, orotate, besylate, hemisulfate, phosphate and tartrate salts; water was employed for chloride salt; ethyl formate was employed for maleate, oxalate, gentisicate, fumarate and mandelate salts; tetrahydrofuran was employed for camphorsulfonate and pamoate salts; isopropyl acetate was employed for 4-hydroxybenzoate and methanol for camphorate salt. The corresponding acid was added under stirring in equimolar amount (except for hemisulfate, added in 0.5 molar amount). After 1 hour the crystalline solid was isolated by filtration, washed with the corresponding solvent (2×1 ml) and dried under nitrogen for 2 hours.
The quantification of the dissolved amount was done by LC/UV system at different checkpoints up to 60 minutes. The saturation solution concentration was around 25-30 mg/ml. […] In a second experiment, the quantification was repeated with saturation solution concentration 170 mg/ml for the mesylate salt Form 2 and 100 mg/ml for the esylate salt Form 1. The results are reported in tables 8A, 8B, 8C, 8D and FIG. 28.

[2] = Formulations with polymer: drug content and appearance; details: for Found conc.: nominal 40 mg/ml
Excerpt: The formulation having a 0.05 M citrate buffer concentration was chosen to be tested with the addition of polymers to investigate the effect due to a potential viscosity increase.
Different percentage of polymers were used, e.g. 5% w/v of polyvinylpyrrolidone (PVP) 40 or 1% w/v HPMC.
The formulations were studied with or without the use of the surfactant D-α-tocopherol polyethylene glycol succinate (Vit. E TPGS, Sigma Aldrich; CAS: 9002-96-4) in 0.05 M citrate buffer at pH 2.5 at the nominal concentration of 40 mg/ml. To prepare the vehicle the proper amount of citric acid was dissolved in water in a volumetric flask, then the pH was increased up to 2.5 using 0.1 M NaOH. Then water was added and brought to the final volume. The polymers PVP 40 (Sigma Aldrich; CAS: 9003-39-8) or HPMC (viscosity 46-60 cP; Sigma Aldrich; CAS: 9004-65-3) were gently dissolved in citrate buffer and left under magnetic stirring for at least 1 hour to their complete hydration. When required, Vit. E TPGS was subsequently added to the media and gently left under magnetic stirring to avoid bubbles formation.
The required volume of vehicle was added to a known amount of Compound A free base Form A or Mesylate salt Form 2, then sonicated at RT for at least 10 min. The formulation was kept under magnetic stirring for at least 10 min before analysis.

[3] = Comparative stability at 40 °C and 75% RH at open conditions (UPLC/UV and XRPD); details: 40 °C/75% RH open; for % area main peak (LC/UV): 0 days
Method: In a second experiment, approximately 100 mg of compound A mesylate salt Form 2 according to Example 2, free base Form A according to Example 1 and esylate salt Form 1 according to Example 6 were stored in three open amber glass vials covered with filter paper to simulate open conditions. The samples were stored in a stability chamber at 75% RH and 40 °C to compare their stability. At the time points 0, 28, 56, 84 days the corresponding samples were removed from the stability chambers. After conditioning at RT, the samples were analyzed by UPLC/UV and XRPD.

[4] = Dynamic vapour sorption (DVS), hygroscopicity
Method: Moisture sorption/desorption data were collected on a TA Instruments Vapor Sorption Analyzer Q5000SA.
First step: sorption data was collected in the range 40% to 90% relative humidity (RH).
Second Step: desorption, sorption and desorption data were collected over a range of 0% to 90% RH at 10% RH intervals under a nitrogen purge. Samples were not dried prior to analysis. Equilibrium criteria used for analysis were less than 0.100% weight change in 20 minutes, with a maximum equilibration time of 1 hour if the weight criterion was not met. Data were not corrected for the initial moisture content of the samples. NaBr was used as humidity verification.
Moisture sorption/desorption data were also collected on a ProUmid SnS 23 equipped with a 23 autosampler following Method 1.
In the first step sorption data was collected in the range 0% to 90% RH. Samples were not dried prior to analysis.
In the second Step desorption, sorption and desorption data were collected over a range of 0% to 90% (RH) at 10% RH intervals under a nitrogen purge. Data were not corrected for the initial moisture content of the samples.

[5] = Dissolution in simulated oral fluids (FaSSGF, FaSSIF, FeSSIF), DISS Profiler, 37 °C, 24 hours; details: for Maximum solubility: 1440 min
Method: The dissolution of mesylate salt Form 2 of the compound A in comparison with the free base Form A of compound A was tested in all simulated oral fluids. The experiments were conducted with DISS Profiler 6 Channel Pion. The experiments were conducted until 24 hours at 37 °C.
The mediums used, namely FaSSGF (Fasted State Simulated Gastric Fluid), FaSSIF (Fasted State Simulated Intestinal Fluid) and FeSSIF (Fed State Simulated Intestinal Fluid) were obtained from Biorelevant.com Ltd. The medium compositions are listed in table 9. The saturated solution concentrations were about 14-15 mg/ml (as free base) in FaSSGF and about 3-4 mg/ml (as free base) in FaSSIF and FeSSIF.

[6] = 1% w/v HPMC, 1% w/v Vit. E TPGS, 0.05 M citrate buffer pH 2.5
[7] = 5% w/v PVP, 1% w/v Vit. E TPGS, 0.05 M citrate buffer pH 2.5
[8] = 5% w/v PVP, 0.05 M citrate buffer pH 2.5

Row | Structure (SMILES) | Solubility ([1]; first experiment, 60 min) | Appearance [2, 6] | Mean recovery [2, 6] | Found conc. [2, 6] | Appearance [2, 7] | Mean recovery [2, 7] | Found conc. [2, 7] | Appearance [2, 8] | Mean recovery [2, 8] | Found conc. [2, 8] | % area main peak (LC/UV) [3] | pH at the end of the experiment ([5]; FaSSGF) | Time to decrease of solubility / duration of sustained solubility ([5]; FaSSGF, 37 °C) | Dissolution behaviour ([5]; FaSSGF, 37 °C, 24 hours) | pH at the end of the experiment ([5]; FaSSIF) | Maximum solubility ([5]; FaSSIF, 37 °C, 24 hours) | pH at the end of the experiment ([5]; FeSSIF) | other results
1 | COc1cc(-c2ccc(F)cn2)cc2c(N[C@H](C)c3noc(C)n3)ncnc12 [free base Form A, (R)-6-(5-fluoropyridin-2-yl)-8-methoxy-N-(1-(5-methyl-1,2,4-oxadiazol-3-yl)ethyl)quinazolin-4-amine] | 6.89 mg/mL (≈ 18.1 mM) | Suspension | 104.9% | 41.96 mg/mL | Suspension | 111.18% | 44.47 mg/mL | Suspension | 100.3% | 40.12 mg/mL | 99.8 % area | 3.1 | approximately 3 hours | steady increase of solubility, but not complete solubilisation | 6.4 | 0.04 mg/mL | 5.1 | Solubility ([1]; first experiment (saturation conc. around 25-30 mg/ml), 5 min): 6.87 mg/mL (≈ 18.1 mM); Solubility ([1]; first experiment, 10 min): 7.01 mg/mL (≈ 18.4 mM); Solubility ([1]; first experiment, 20 min): 6.84 mg/mL (≈ 18 mM); Solubility ([1]; first experiment, 40 min): 6.89 mg/mL (≈ 18.1 mM); Solubility ([1]; second experiment (saturation conc. 170 mg/ml mesylate, 100 mg/ml esylate), 0 min): 0.63 mg/mL (≈ 1.66 mM); Solubility ([1]; second experiment, 15 min): 12.77 mg/mL (≈ 33.6 mM); Solubility ([1]; second experiment, 30 min): 11.89 mg/mL (≈ 31.3 mM); Solubility ([1]; second experiment, 60 min): 13.47 mg/mL (≈ 35.4 mM); Appearance ([2]; all formulations with polymer): suspensions; Total weight gain (hygroscopicity) ([4]; between 2.5% and 90% RH): about 0.249 wt %; Hygroscopicity ([4]; between 20% and 80% RH): No hygroscopicity was noted; Total water uptake ([4]; between 20% and 80% RH): 0.249%; solubility at 24 h ([5]; fassgf, 37 °C, 24 hours, read-out: Maximum solubility): ~11 mg/mL (≈ 28.9 mM); solubility at 24 h ([5]; fessif, 37 °C, 24 hours, read-out: Maximum solubility): 0.1 mg/mL (≈ 0.263 mM)
2 | COc1cc(-c2ccc(F)cn2)cc2c(N[C@H](C)c3noc(C)n3)ncnc12 [mesylate salt Form 2, (R)-6-(5-fluoropyridin-2-yl)-8-methoxy-N-(1-(5-methyl-1,2,4-oxadiazol-3-yl)ethyl)quinazolin-4-amine] | ≥ 25 mg/mL | Solution | 111.10% | 44.44 mg/mL | Solution | 112.20% | 44.87 mg/mL | Solution | 116.30% | 46.51 mg/mL | 99.9 % area | 1.8 | at least 24 hours | complete solubilisation was achieved; also recorded: no decrease in the solubility during the 24 hours | 6.1 | 0.10 mg/mL | 5.0 | Solubility ([1]; first experiment (saturation conc. around 25-30 mg/ml), 5 min, listed as mesylate Form 2, 5 min): 31.44 mg/mL; Solubility ([1]; first experiment, 10 min, listed as mesylate Form 2, 10 min): 31.92 mg/mL; Solubility ([1]; first experiment, 20 min, listed as mesylate Form 2, 20 min): 31.65 mg/mL; Solubility ([1]; first experiment, 40 min, listed as mesylate Form 2, 40 min): 31.16 mg/mL; Solubility ([1]; first experiment, 60 min, listed as mesylate Form 2, 60 min): 31.30 mg/mL; Solubility ([1]; second experiment (saturation conc. 170 mg/ml mesylate, 100 mg/ml esylate), 0 min, listed as mesylate Form 2, 0 min): 19.25 mg/mL; Solubility ([1]; second experiment, 15 min, listed as mesylate Form 2, 15 min): 151.67 mg/mL; Solubility ([1]; second experiment, 30 min, listed as mesylate Form 2, 30 min): 159.96 mg/mL; Solubility ([1]; second experiment, 60 min, listed as mesylate Form 2, 60 min): 169.82 mg/mL; Solubility compared to free base Form A ([1]; 60 minutes): consistently higher solubility than the free base Form A during the 60 minutes time; Dissolution ([1]; first experiment, saturation conc. around 25-30 mg/ml): completely dissolved; Formulability in solution compared to free base Form A ([2]; with polymers, all excipients considered): better formulability in solution; Stability ([3]; 84 days): surprisingly good stability during stressed storage; Total weight gain (hygroscopicity) ([4]; between 0% and 90% RH): about 1.049 wt %; Maximum solubility ([5]; FaSSGF, 37 °C, 24 hours): 14.00 mg/mL; Maximum solubility ([5]; FeSSIF, 37 °C, 24 hours): 0.07 mg/mL; solubility at 24 h ([5]; fassif, read-out: Solubility by UPLC/UV/MS at the end of the experiment): 0.03 mg/mL; solubility at 24 h ([5]; fessif, read-out: Solubility by UPLC/UV/MS at the end of the experiment): 0.17 mg/mL
